Measured values taken from the NIST ThermoML archive (doi:10.1016/j.jct.2016.03.026).

Assay: xn = mol fraction of the nth substance listed
Conditions: Fluid (supercritical or subcritical phases), Vibrating tube method, x1 = 0.97

O=C=O [carbon dioxide] + CO
Conditions	mass density [kg/m3]
304.21 K, 16700 kPa	863.76
304.21 K, 16725 kPa	864.02
304.21 K, 16750 kPa	864.2
304.21 K, 16775 kPa	864.47
304.21 K, 16800 kPa	864.63
304.21 K, 16825 kPa	864.86
304.21 K, 16850 kPa	865.05
304.21 K, 16875 kPa	865.26
304.21 K, 16900 kPa	865.51
304.21 K, 16925 kPa	865.7
304.21 K, 16950 kPa	865.9
304.21 K, 16975 kPa	866.12
304.21 K, 17000 kPa	866.34
304.21 K, 17025 kPa	866.56
304.21 K, 17050 kPa	866.78
304.21 K, 17075 kPa	866.99
304.21 K, 17100 kPa	867.2
304.21 K, 17125 kPa	867.4
304.21 K, 17150 kPa	867.63
304.21 K, 17175 kPa	867.77
304.21 K, 17200 kPa	867.99
304.21 K, 17225 kPa	868.2
304.21 K, 17250 kPa	868.43
304.21 K, 17275 kPa	868.66
304.21 K, 17300 kPa	868.87
304.21 K, 17325 kPa	869.01
304.21 K, 17350 kPa	869.28
304.21 K, 17375 kPa	869.42
304.21 K, 17400 kPa	869.69
304.21 K, 17425 kPa	869.89
304.21 K, 17450 kPa	870.09
304.21 K, 17475 kPa	870.29
304.21 K, 17500 kPa	870.48
304.21 K, 17525 kPa	870.66
304.21 K, 17550 kPa	870.86
304.21 K, 17575 kPa	871.06
304.21 K, 17600 kPa	871.23
304.21 K, 17625 kPa	871.44
304.21 K, 17650 kPa	871.68
304.21 K, 17675 kPa	871.84
304.21 K, 17700 kPa	872.08
304.21 K, 17725 kPa	872.29
304.21 K, 17750 kPa	872.45
304.21 K, 17775 kPa	872.68
304.21 K, 17800 kPa	872.83
304.21 K, 17825 kPa	873.02
304.21 K, 17850 kPa	873.25
304.21 K, 17875 kPa	873.48
304.21 K, 17900 kPa	873.63
304.21 K, 17925 kPa	873.87
304.21 K, 17950 kPa	874.01
304.21 K, 17975 kPa	874.23
304.21 K, 18000 kPa	874.46
304.21 K, 18025 kPa	874.62
304.21 K, 18050 kPa	874.83
304.21 K, 18075 kPa	875.05
304.21 K, 18100 kPa	875.2
304.21 K, 18125 kPa	875.42
304.21 K, 18150 kPa	875.58
304.21 K, 18175 kPa	875.78
304.21 K, 18200 kPa	876
304.21 K, 18225 kPa	876.22
304.21 K, 18250 kPa	876.35
304.21 K, 18275 kPa	876.56
304.21 K, 18300 kPa	876.78
304.21 K, 18325 kPa	876.99
304.21 K, 18350 kPa	877.14
304.21 K, 18375 kPa	877.36
304.21 K, 18400 kPa	877.5
304.21 K, 18425 kPa	877.73
304.21 K, 18450 kPa	877.88
304.21 K, 18475 kPa	878.11
304.21 K, 18500 kPa	878.3
304.21 K, 18525 kPa	878.46
304.21 K, 18550 kPa	878.68
304.21 K, 18575 kPa	878.87
304.21 K, 18600 kPa	879.03
304.21 K, 18625 kPa	879.24
304.21 K, 18650 kPa	879.38
304.21 K, 18675 kPa	879.61
304.21 K, 18700 kPa	879.76
304.21 K, 18725 kPa	879.99
304.21 K, 18750 kPa	880.19
304.21 K, 18775 kPa	880.38
304.21 K, 18800 kPa	880.58
304.21 K, 18825 kPa	880.78
304.21 K, 18850 kPa	880.89
304.21 K, 18875 kPa	881.09
304.21 K, 18900 kPa	881.28
304.21 K, 18925 kPa	881.49
304.21 K, 18950 kPa	881.68
304.21 K, 18975 kPa	881.88
304.21 K, 19000 kPa	882.06
304.21 K, 19025 kPa	882.19
304.21 K, 19050 kPa	882.43
304.21 K, 19075 kPa	882.62
304.21 K, 19100 kPa	882.73
304.21 K, 19125 kPa	882.92
304.21 K, 19150 kPa	883.11
304.21 K, 19175 kPa	883.3
304.21 K, 19200 kPa	883.48
304.21 K, 19225 kPa	883.65
304.21 K, 19250 kPa	883.86
304.21 K, 19275 kPa	884.07
304.21 K, 19300 kPa	884.25
304.21 K, 19325 kPa	884.43
304.21 K, 19350 kPa	884.6
304.21 K, 19375 kPa	884.78
304.21 K, 19400 kPa	884.95
304.21 K, 19425 kPa	885.12
304.21 K, 19450 kPa	885.28
304.21 K, 19475 kPa	885.46
304.21 K, 19500 kPa	885.62
304.21 K, 19525 kPa	885.78
304.21 K, 19550 kPa	886.04
304.21 K, 19575 kPa	886.21
304.21 K, 19600 kPa	886.37
304.21 K, 19625 kPa	886.54
304.21 K, 19650 kPa	886.76
304.21 K, 19675 kPa	886.92
304.21 K, 19700 kPa	887.09
304.21 K, 19725 kPa	887.24
304.21 K, 19750 kPa	887.4
304.21 K, 19775 kPa	887.64
304.21 K, 19800 kPa	887.8
304.21 K, 19825 kPa	887.96
304.21 K, 19850 kPa	888.12
304.21 K, 19875 kPa	888.28
304.21 K, 19900 kPa	888.48
304.21 K, 19925 kPa	888.67
304.21 K, 19950 kPa	888.82
304.21 K, 19975 kPa	888.98
304.21 K, 20000 kPa	889.2
313.15 K, 8375 kPa	468.68
313.15 K, 8400 kPa	477.47
313.15 K, 8425 kPa	486.09
313.15 K, 8450 kPa	494.72
313.15 K, 8475 kPa	503.03
313.15 K, 8500 kPa	510.78
313.15 K, 8525 kPa	518.43
313.15 K, 8550 kPa	525.63
313.15 K, 8575 kPa	531.85
313.15 K, 8600 kPa	538.44
313.15 K, 8625 kPa	544.56
313.15 K, 8650 kPa	551.14
313.15 K, 8675 kPa	556.46
313.15 K, 8700 kPa	562.19
313.15 K, 8725 kPa	566.94
313.15 K, 8750 kPa	571.39
313.15 K, 8775 kPa	576
313.15 K, 8800 kPa	580.21
313.15 K, 8825 kPa	583.78
313.15 K, 8850 kPa	587.78
313.15 K, 8875 kPa	591.7
313.15 K, 8900 kPa	595.4
313.15 K, 8925 kPa	598.87
313.15 K, 8950 kPa	601.87
313.15 K, 8975 kPa	604.9
313.15 K, 9000 kPa	608.05
313.15 K, 9025 kPa	611
313.15 K, 9050 kPa	613.79
313.15 K, 9075 kPa	616.51
313.15 K, 9100 kPa	619.14
313.15 K, 9125 kPa	621.62
313.15 K, 9150 kPa	624.11
313.15 K, 9175 kPa	626.69
313.15 K, 9200 kPa	629
313.15 K, 9225 kPa	631.2
313.15 K, 9250 kPa	633.38
313.15 K, 9275 kPa	635.44
313.15 K, 9300 kPa	637.48
313.15 K, 9325 kPa	639.32
313.15 K, 9350 kPa	641.4
313.15 K, 9375 kPa	643.26
313.15 K, 9400 kPa	645.2
313.15 K, 9425 kPa	646.98
313.15 K, 9450 kPa	648.9
313.15 K, 9475 kPa	650.62
313.15 K, 9500 kPa	652.27
313.15 K, 9525 kPa	653.94
313.15 K, 9550 kPa	655.55
313.15 K, 9575 kPa	657.12
313.15 K, 9600 kPa	658.64
313.15 K, 9625 kPa	660.18
313.15 K, 9650 kPa	661.7
313.15 K, 9675 kPa	663.21
313.15 K, 9700 kPa	664.7
313.15 K, 9725 kPa	666.14
313.15 K, 9750 kPa	667.47
313.15 K, 9775 kPa	668.89
313.15 K, 9800 kPa	670.26
313.15 K, 9825 kPa	671.58
313.15 K, 9850 kPa	672.87
313.15 K, 9875 kPa	674.13
313.15 K, 9900 kPa	675.44
313.15 K, 9925 kPa	676.66
313.15 K, 9950 kPa	677.96
313.15 K, 9975 kPa	679.1
313.15 K, 10000 kPa	680.33
313.15 K, 10025 kPa	681.48
313.15 K, 10050 kPa	682.54
313.15 K, 10075 kPa	683.7
313.15 K, 10100 kPa	684.8
313.15 K, 10125 kPa	685.84
313.15 K, 10150 kPa	686.83
313.15 K, 10175 kPa	687.88
313.15 K, 10200 kPa	688.8
313.15 K, 10225 kPa	689.94
313.15 K, 10250 kPa	690.95
313.15 K, 10275 kPa	691.93
313.15 K, 10300 kPa	693
313.15 K, 10325 kPa	693.97
313.15 K, 10350 kPa	694.91
313.15 K, 10375 kPa	695.92
313.15 K, 10400 kPa	696.92
313.15 K, 10425 kPa	697.78
313.15 K, 10450 kPa	698.73
313.15 K, 10475 kPa	699.66
313.15 K, 10500 kPa	700.62
313.15 K, 10525 kPa	701.51
313.15 K, 10550 kPa	702.39
313.15 K, 10575 kPa	703.29
313.15 K, 10600 kPa	704.13
313.15 K, 10625 kPa	705.05
313.15 K, 10650 kPa	705.9
313.15 K, 10675 kPa	706.75
313.15 K, 10700 kPa	707.66
313.15 K, 10725 kPa	708.5
313.15 K, 10750 kPa	709.33
313.15 K, 10775 kPa	710.14
313.15 K, 10800 kPa	710.93
313.15 K, 10825 kPa	711.74
313.15 K, 10850 kPa	712.55
313.15 K, 10875 kPa	713.33
313.15 K, 10900 kPa	714.15
313.15 K, 10925 kPa	714.94
313.15 K, 10950 kPa	715.71
313.15 K, 10975 kPa	716.52
313.15 K, 11000 kPa	717.28
313.15 K, 11025 kPa	718.03
313.15 K, 11050 kPa	718.76
313.15 K, 11075 kPa	719.52
313.15 K, 11100 kPa	720.27
313.15 K, 11125 kPa	720.97
